Results on one compound are retold here after US7338955B1, “Medicament for treatment of neuropathies” (Lilly ICOS LLC, priority 1999, dated 2008).

SMILES strings stand for the structures.

The test system of one experiment is diabetic polyneuropathy. The experiment can be described thus: Case report: type 2 diabetes patient with diabetic polyneuropathy treated with sildenafil. The format is in vivo, human. As to conditions: twelve months after start of therapy. The protocol:
A patient had been suffering from diabetes mellitus, type 2, for 9 years. While blood glucose values (HbA1c between 6 and 7%) were good, symptoms of a diabetic polyneuropathy appeared, namely vibration sensing of 2/8, no filament sensing, and a reduced hot/cold differentiation. Because of a simultaneous erectile dysfunction they were treated with sildenafil in its commercially available preparation (tablets) at 50 mg/week in a single administration.
Subjectively, the patient noted disappearance of sensory misperceptions of temperature.

Another experiment has as its system painful neuropathy. Kind of experiment: Case report: type 1 diabetes patient with painful neuropathy treated with sildenafil. The format is in vivo, human. As to conditions: 50 mg/week single administration. The protocol:
A patient had been suffering from diabetes mellitus, type 1, for about 35 years. Complications included a retinopathy and a painful neuropathy. Under intensified insulin therapy, blood glucose metabolism data were in a sub-optimum range (HbA1c around 8%). Thus, the patient suffered from a painful neuropathy and was treated unsuccessfully with various conventional medicaments.
Objectifiable diagnostic data were improved as well.

For the compound `CCCc1nn(C)c2c(=O)[nH]c(-c3cc(S(=O)(=O)N4CCN(C)CC4)ccc3OCC)nc12` [sildenafil], in the experiment with diabetic polyneuropathy (50 mg/week single administration (tablets)), the neurologic situation result is “largely normal”. The “sensory misperceptions of temperature (subjective)” value in the experiment on diabetic polyneuropathy (50 mg/week) was “disappearance”. Besides, the vibration sensing in the experiment with diabetic polyneuropathy (50 mg/week, 2/8 before therapy) is listed as 5/8. Further, the filament sensing entry in the experiment on diabetic polyneuropathy (50 mg/week, no filament sensing before therapy) is given as “intact”. Further, the hot/cold differentiation result in the experiment with diabetic polyneuropathy (50 mg/week, reduced before therapy) is listed as “intact”. In addition, the symptomatic pain entry in the experiment with painful neuropathy (in the course of the following three months) was “lasting improvement”. Further, in the experiment on painful neuropathy (three months), the objectifiable diagnostic data result was “improved”.
